The compounds below were run against T1, F508del (Homo sapiens, UniProt P13569, DEL508-508) (assay: Protocol 2: FRET membrane potential optical assay (VIPR), identification of correction compounds). Conditions: F508del CFTR modulator activity; compounds of Table 1; read-out: EC30.
T1 construct: expressed in transfected cells
Format: cell-based
Summary of the method: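 NIH3T3 mouse fibroblasts stably expressing F508del-CFTR incubated with compound 16 h at 37 °C in serum-free medium, then loaded with CC2-DMPE/DiSBAC2(3) FRET dyes. Channel activated with 10 μM forskolin plus 20 μM genistein in Cl⁻-free (gluconate) bath; depolarisation from Cl⁻ efflux read on VIPR II.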

T1 sequence (P13569 with tags, fused parts or gaps DEL508-508): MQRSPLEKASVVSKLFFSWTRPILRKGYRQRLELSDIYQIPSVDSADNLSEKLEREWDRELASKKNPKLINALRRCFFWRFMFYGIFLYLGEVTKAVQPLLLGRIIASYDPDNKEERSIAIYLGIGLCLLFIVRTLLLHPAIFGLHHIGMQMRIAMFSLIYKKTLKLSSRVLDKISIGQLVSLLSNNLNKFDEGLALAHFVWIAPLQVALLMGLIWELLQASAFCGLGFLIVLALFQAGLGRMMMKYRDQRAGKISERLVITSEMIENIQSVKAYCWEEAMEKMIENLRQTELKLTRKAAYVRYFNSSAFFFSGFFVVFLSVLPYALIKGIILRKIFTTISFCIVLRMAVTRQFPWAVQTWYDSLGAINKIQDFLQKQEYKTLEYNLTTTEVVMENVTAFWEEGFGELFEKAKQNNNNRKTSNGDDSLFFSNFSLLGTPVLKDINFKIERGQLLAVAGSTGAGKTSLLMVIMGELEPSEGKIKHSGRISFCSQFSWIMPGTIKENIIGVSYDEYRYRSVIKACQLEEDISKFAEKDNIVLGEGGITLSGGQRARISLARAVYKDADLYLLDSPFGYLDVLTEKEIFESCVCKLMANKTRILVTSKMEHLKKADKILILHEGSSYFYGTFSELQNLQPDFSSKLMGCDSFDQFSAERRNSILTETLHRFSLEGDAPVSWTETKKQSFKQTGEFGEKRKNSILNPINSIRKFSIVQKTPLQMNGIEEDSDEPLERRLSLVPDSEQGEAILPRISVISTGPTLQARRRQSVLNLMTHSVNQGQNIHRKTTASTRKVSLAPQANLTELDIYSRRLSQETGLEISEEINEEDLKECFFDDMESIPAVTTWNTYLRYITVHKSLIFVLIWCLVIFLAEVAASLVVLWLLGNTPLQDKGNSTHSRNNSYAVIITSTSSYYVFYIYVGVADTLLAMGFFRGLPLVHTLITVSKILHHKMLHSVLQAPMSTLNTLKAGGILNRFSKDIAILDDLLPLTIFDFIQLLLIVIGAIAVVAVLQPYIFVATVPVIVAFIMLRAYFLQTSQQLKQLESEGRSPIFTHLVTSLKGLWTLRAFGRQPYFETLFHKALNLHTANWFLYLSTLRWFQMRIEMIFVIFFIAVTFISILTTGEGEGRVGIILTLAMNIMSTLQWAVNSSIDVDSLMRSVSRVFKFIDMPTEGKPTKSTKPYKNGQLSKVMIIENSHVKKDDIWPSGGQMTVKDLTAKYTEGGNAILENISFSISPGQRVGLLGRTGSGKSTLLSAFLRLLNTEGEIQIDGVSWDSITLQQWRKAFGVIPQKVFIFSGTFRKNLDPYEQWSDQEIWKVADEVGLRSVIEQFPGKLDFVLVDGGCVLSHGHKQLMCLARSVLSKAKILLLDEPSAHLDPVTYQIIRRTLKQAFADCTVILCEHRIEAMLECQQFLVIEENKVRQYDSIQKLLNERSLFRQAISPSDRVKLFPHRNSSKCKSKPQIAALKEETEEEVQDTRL

SMILES | EC30
COc1cc(CO)cc(-c2ccc(C(=O)NS(=O)(=O)c3cccnc3N)c(N3C[C@@H](C)CC3(C)C)n2)c1 [Compound 2065, N-[(2-amino-3-pyridyl)sulfonyl]-6-[3-(hydroxymethyl)-5-methoxy-phenyl]-2-[(4S)-2,2,4-trimethylpyrrolidin-1-yl]pyridine-3-carboxamide] | < 3000 nM
C[C@@H]1CN(c2nc(-c3ccccc3OC(F)(F)F)ccc2C(=O)NS(=O)(=O)N2CC[C@H](N)C2)C(C)(C)C1 [Compound 2070, N-[(3S)-3-aminopyrrolidin-1-yl]sulfonyl-6-[2-(trifluoromethoxy)phenyl]-2-[(4S)-2,2,4-trimethylpyrrolidin-1-yl]pyridine-3-carboxamide] | < 3000 nM
CC(C)CCOc1cccc(S(=O)(=O)NC(=O)c2cccnc2N2CC(C)CC2(C)C)n1 (stereo not drawn) [Compound 2075, N-[(6-isopentyloxy-2-pyridyl)sulfonyl]-2-(2,2,4-trimethylpyrrolidin-1-yl)pyridine-3-carboxamide] | < 3000 nM
CC1CN(c2ncccc2C(=O)NS(=O)(=O)c2cccc(Oc3ccc(C#N)cc3)n2)C(C)(C)C1 (stereo not drawn) [Compound 2076, N—[[6-(4-cyanophenoxy)-2-pyridyl]sulfonyl]-2-(2,2,4-trimethylpyrrolidin-1-yl)pyridine-3-carboxamide] | < 3000 nM
CC1CN(c2ncccc2C(=O)NS(=O)(=O)c2cccc(O[C@H]3CCN(Cc4ccccc4)C3)n2)C(C)(C)C1 (stereo partly drawn) [Compound 2078, N—[[6-[(3S)-1-benzylpyrrolidin-3-yl]oxy-2-pyridyl]sulfonyl]-2-(2,2,4-trimethylpyrrolidin-1-yl)pyridine-3-carboxamide] | 3000 to 10000 nM
Cc1cc(-c2ccc(C(=O)NS(=O)(=O)c3cccc(N)n3)c(N3C[C@@H](C)CC3(C)C)n2)cc(OCCOC(C)C)n1 [Compound 2079, N-[(6-amino-2-pyridyl)sulfonyl]-6-[2-(2-isopropoxyethoxy)-6-methyl-4-pyridyl]-2-[(4S)-2,2,4-trimethylpyrrolidin-1-yl]pyridine-3-carboxamide] | < 3000 nM
CC1CN(c2ncccc2C(=O)NS(=O)(=O)c2cccc(Oc3ccccc3C(C)(C)C)n2)C(C)(C)C1 (stereo not drawn) [Compound 2083, N—[[6-(2-tert-butylphenoxy)-2-pyridyl]sulfonyl]-2-(2,2,4-trimethylpyrrolidin-1-yl)pyridine-3-carboxamide] | < 3000 nM
CCCOc1ccc(C)cc1-c1ccc(C(=O)NS(=O)(=O)c2cccc(N)n2)c(N2C[C@@H](C)CC2(C)C)n1 [Compound 2085, N-[(6-amino-2-pyridyl)sulfonyl]-6-(5-methyl-2-propoxy-phenyl)-2-[(4S)-2,2,4-trimethylpyrrolidin-1-yl]pyridine-3-carboxamide] | < 3000 nM
COc1ncc(-c2ccc(C(=O)NS(=O)(=O)c3cccc(N)n3)c(N3C[C@@H](C)CC3(C)C)n2)cc1C [Compound 2086, N-[(6-amino-2-pyridyl)sulfonyl]-6-(6-methoxy-5-methyl-3-pyridyl)-2-[(4S)-2,2,4-trimethylpyrrolidin-1-yl]pyridine-3-carboxamide] | < 3000 nM
CC1CN(c2ncccc2C(=O)NS(=O)(=O)c2cccc(Nc3ccc(N4CCCCC4)cc3)n2)C(C)(C)C1 (stereo not drawn) [Compound 2087, N—[[6-[4-(1-piperidyl)anilino]-2-pyridyl]sulfonyl]-2-(2,2,4-trimethylpyrrolidin-1-yl)pyridine-3-carboxamide] | < 3000 nM
CC1CN(c2ncc(-c3ccc(CO)cc3)cc2C(=O)NS(=O)(=O)c2cccc(N)n2)C(C)(C)C1 (stereo not drawn) [Compound 2088, N-[(6-amino-2-pyridyl)sulfonyl]-5-[4-(hydroxymethyl)phenyl]-2-(2,2,4-trimethylpyrrolidin-1-yl)pyridine-3-carboxamide] | 3000 to 10000 nM
CC(C)COc1cccc(-c2cnc(N3CC(C)CC3(C)C)c(C(=O)NS(=O)(=O)c3cccc(N)n3)c2)c1 (stereo not drawn) [Compound 2089, N-[(6-amino-2-pyridyl)sulfonyl]-5-(3-isobutoxyphenyl)-2-(2,2,4-trimethylpyrrolidin-1-yl)pyridine-3-carboxamide] | < 3000 nM
COc1ccccc1CN(C)c1cccc(S(=O)(=O)NC(=O)c2cccnc2N2CC(C)CC2(C)C)n1 (stereo not drawn) [Compound 2090, N—[[6-[(2-methoxyphenyl)methyl-methyl-amino]-2-pyridyl]sulfonyl]-2-(2,2,4-trimethylpyrrolidin-1-yl)pyridine-3-carboxamide] | < 3000 nM
C[C@@H]1CN(c2nc(-c3ccccc3)ccc2C(=O)NS(=O)(=O)c2ccccc2)C(C)(C)C1 [Compound 2092, N-(benzenesulfonyl)-6-phenyl-2-[(4S)-2,2,4-trimethylpyrrolidin-1-yl]pyridine-3-carboxamide] | < 3000 nM
CCCOc1ccc(-c2cnc(N3CC(C)CC3(C)C)c(C(=O)NS(=O)(=O)c3cccc(N)n3)c2)cc1C (stereo not drawn) [Compound 2095, N-[(6-amino-2-pyridyl)sulfonyl]-5-(3-methyl-4-propoxy-phenyl)-2-(2,2,4-trimethylpyrrolidin-1-yl)pyridine-3-carboxamide] | < 3000 nM

Further lines, results first:

EC30 | SMILES
< 3000 nM | CC1CN(c2ncccc2C(=O)NS(=O)(=O)c2cccc(NCc3cccc(Cl)c3)n2)C(C)(C)C1 (stereo not drawn) [Compound 2064, N—[[6-[(3-chlorophenyl)methylamino]-2-pyridyl]sulfonyl]-2-(2,2,4-trimethylpyrrolidin-1-yl)pyridine-3-carboxamide]
< 3000 nM | C[C@@H]1CN(c2nc(-c3ccccc3Cl)ccc2C(=O)NS(=O)(=O)c2cccnc2N)C(C)(C)C1 [Compound 2066, N-[(2-amino-3-pyridyl)sulfonyl]-6-(2-chlorophenyl)-2-[(4S)-2,2,4-trimethylpyrrolidin-1-yl]pyridine-3-carboxamide]
< 3000 nM | Cc1ccc(F)cc1-c1ccc(C(=O)NS(=O)(=O)c2ccc[nH]c2=O)c(N2C[C@@H](C)CC2(C)C)n1 [Compound 2067, 6-(5-fluoro-2-methyl-phenyl)-N-[(2-oxo-1H-pyridin-3-yl)sulfonyl]-2-[(4S)-2,2,4-trimethylpyrrolidin-1-yl]pyridine-3-carboxamide]
< 3000 nM | CC1CN(c2ncccc2C(=O)NS(=O)(=O)c2cccc(Nc3ccccn3)n2)C(C)(C)C1 (stereo not drawn) [Compound 2068, N—[[6-(2-pyridylamino)-2-pyridyl]sulfonyl]-2-(2,2,4-trimethylpyrrolidin-1-yl)pyridine-3-carboxamide]
< 3000 nM | CCOc1ccc(F)cc1-c1ccc(C(=O)NS(=O)(=O)c2cccnc2N)c(N2C[C@@H](C)CC2(C)C)n1 [Compound 2071, N-[(2-amino-3-pyridyl)sulfonyl]-6-(2-ethoxy-5-fluoro-phenyl)-2-[(4S)-2,2,4-trimethylpyrrolidin-1-yl]pyridine-3-carboxamide]
3000 to 10000 nM | COc1ccc(CCNc2cccc(S(=O)(=O)NC(=O)c3cccnc3N3CC(C)CC3(C)C)n2)cc1 (stereo not drawn) [Compound 2072, N—[[6-[2-(4-methoxyphenyl)ethylamino]-2-pyridyl]sulfonyl]-2-(2,2,4-trimethylpyrrolidin-1-yl)pyridine-3-carboxamide]
< 3000 nM | Cc1cccc(-c2ccc(C(=O)NS(=O)(=O)c3ccc[nH]c3=O)c(N3C[C@@H](C)CC3(C)C)n2)c1C [Compound 2073, 6-(2,3-dimethylphenyl)-N-[(2-oxo-1H-pyridin-3-yl)sulfonyl]-2-[(4S)-2,2,4-trimethylpyrrolidin-1-yl]pyridine-3-carboxamide]
3000 to 10000 nM | CC1CN(c2ncccc2C(=O)NS(=O)(=O)c2cccc(Nc3cccc4ncccc34)n2)C(C)(C)C1 (stereo not drawn) [Compound 2074, N—[[6-(5-quinolylamino)-2-pyridyl]sulfonyl]-2-(2,2,4-trimethylpyrrolidin-1-yl)pyridine-3-carboxamide]
3000 to 10000 nM | COc1ccc(-c2ccc(C(=O)NS(=O)(=O)c3ccc[nH]c3=O)c(N3C[C@@H](C)CC3(C)C)n2)cc1 [Compound 2080, 6-(4-methoxyphenyl)-N-[(2-oxo-1H-pyridin-3-yl)sulfonyl]-2-[(4S)-2,2,4-trimethylpyrrolidin-1-yl]pyridine-3-carboxamide]
3000 to 10000 nM | Cc1ccnc(Nc2cccc(S(=O)(=O)NC(=O)c3cccnc3N3CC(C)CC3(C)C)n2)c1 (stereo not drawn) [Compound 2082, N—[[6-[(4-methyl-2-pyridyl)amino]-2-pyridyl]sulfonyl]-2-(2,2,4-trimethylpyrrolidin-1-yl)pyridine-3-carboxamide]
< 3000 nM | Cc1ccc(-c2ccc(C(=O)NS(=O)(=O)c3ccc[nH]c3=O)c(N3C[C@@H](C)CC3(C)C)n2)cc1F [Compound 2084, 6-(3-fluoro-4-methyl-phenyl)-N-[(2-oxo-1H-pyridin-3-yl)sulfonyl]-2-[(4S)-2,2,4-trimethylpyrrolidin-1-yl]pyridine-3-carboxamide]
< 3000 nM | COc1ccc(-c2ccc(C(=O)NS(=O)(=O)c3cccnc3N)c(N3C[C@@H](C)CC3(C)C)n2)c(OC)n1 [Compound 2091, N-[(2-amino-3-pyridyl)sulfonyl]-6-(2,6-dimethoxy-3-pyridyl)-2-[(4S)-2,2,4-trimethylpyrrolidin-1-yl]pyridine-3-carboxamide]
< 3000 nM | Cc1cc(C)cc(-c2cnc(N3CC(C)CC3(C)C)c(C(=O)NS(=O)(=O)c3cccc(N)n3)c2)c1 (stereo not drawn) [Compound 2093, N-[(6-amino-2-pyridyl)sulfonyl]-5-(3,5-dimethylphenyl)-2-(2,2,4-trimethylpyrrolidin-1-yl)pyridine-3-carboxamide]
< 3000 nM | CC1CN(c2ncccc2C(=O)NS(=O)(=O)c2cccc(N3CCCC3c3ccccc3)n2)C(C)(C)C1 (stereo not drawn) [Compound 2094, N—[[6-(2-phenylpyrrolidin-1-yl)-2-pyridyl]sulfonyl]-2-(2,2,4-trimethylpyrrolidin-1-yl)pyridine-3-carboxamide]
< 3000 nM | C[C@@H]1CN(c2nc(-c3ccc(C#N)cc3)ccc2C(=O)NS(=O)(=O)c2cccnc2N)C(C)(C)C1 [Compound 2096, N-[(2-amino-3-pyridyl)sulfonyl]-6-(4-cyanophenyl)-2-[(4S)-2,2,4-trimethylpyrrolidin-1-yl]pyridine-3-carboxamide]

Reference: patent US10758534B2 (Vertex Pharmaceuticals Incorporated, priority 2014, dated 2020)
